We go through 4 compounds from paper PMC12216609, “Inhibitors of eIF1A-ribosome interaction unveil uORF-dependent regulation of translation initiation and antitumor and antiviral effects” (The EMBO Journal, 2025).

By pIC50 is commonly meant −log10 of the IC50, conventionally taken in molar units.

pIC50: −log10 of the molar value. “And” between values parts separate entries of the source, which are not always exact repeats. Identical values can stand only once. Like-named read-outs stand apart in the source and are kept apart here.

Experiment [1] deals with OVCAR8 cell-derived xenograft. Description: Xenografts growth after 1Ais treatment in mice. The class given is in vivo.
Experiment [2] concerns the target T1, eIF1A-RPS10 interaction (Homo sapiens, UniProt P46783+P47813).
T1 construct: made in house; host or cells: E. coli BL21 (PRSFduet); unpurified lysate supernatant
Description: Split-Renilla luciferase eIF1A-RPS10 interaction screen, dose-response. In kind it is biochemical. The settings on record: Appendix Table S1; read-out: IC50 from the split RL screen. How it is done:
While knockdown (KD) studies of eIF1A provided valuable insights into its role in mammalian cell translation (Sehrawat et al, [2019]), this approach presents several limitations. First, it fails to elucidate the functional significance of the opposing functions of eIF1A N- and C-terminal tails with respect to scanning and start codon fidelity. Second, the extended duration required for achieving efficient knockdown, 48–72 h, impairs our ability to differentiate between direct and indirect effects. To overcome these constraints, we set out to develop small-molecule inhibitors targeting eIF1A. Guided by structural and biochemical studies showing eIF1A binding to the small ribosomal subunit at the A-site and interacting directly with RPS10 through its N-terminal tail (Haimov et al, [2017]; Passmore et al, [2007]; Sehrawat et al, [2019]), our approach focused on disrupting the interaction between eIF1A and RPS10. […] The interaction between eIF1A and RPS10 brings the two parts together, leading to the reconstitution of the enzymatic activity (Haimov et al, [2017]). In this system, the spatial arrangement of the two RL parts is critical for the enzymatic activity, making it sensitive not only to direct interference with the interacting proteins but also to changes in the conformation of the fused proteins. In the eIF1A-RPS10 split-RL pair, the C-terminus of eIF1A is fused to N-RL (Fig. 1A), in order to maintain the NTT accessible to RPS10 binding. This pair was cloned and expressed in bacteria as recombinant proteins and used to screen a library of ~50,000 small molecules from diverse sources (Ashkenazi et al, [2017]).
eIF1A-ΔC-Renilla and RPS10-ΔN-Renilla were transformed into BL21 E. coli by heat shock transformation. A bacterial starter of 5 ml LB was incubated overnight at 37 °C and transferred into 1 L LB for incubation at 37 °C until OD ~ 0.5–0.7. Next, protein expression was induced with 0.5 mM IPTG, and bacterial cells were incubated overnight at 16 °C. Bacterial cell pellet was collected after centrifugation (3000 RPM, 15 min), resuspended in 20 ml TKE buffer (Tris 10 mM, KCl 100 mM, EDTA 0.1 mM), sonicated (bath sonicator, 24 cycles of 30 s) and centrifuged again (15000 RPM, 30 min). Supernatants were collected, analyzed for RL activity, and then used for high throughput drug screen (HTS) at the Weizmann G-INCPM HTS unit as described (Ashkenazi et al, [2017]). In addition to the standard controls of this protocol, the two parts of the split RL, without eIF1A or RPS10, were tested as controls. Selected compounds were purchased from Sigma-Aldrich and Enamine. Compound powders were resuspended in DMSO for a final concentration of 10 mM and stored at −20 °C.

Experiment [3] deals with CUG/GUG vs AUG start codon luciferase reporters in HEK293T cells. Description: Near-cognate AUG starting codon fidelity reporter assay (GUG, CUG vs AUG). The conditions noted are these: for GUG vs AUG data (%): individual repeat; for GUG vs AUG (%) Average: summary average of repeats, DMSO control average […]. In kind it is cell-based. How it is done:
We next considered the importance of eIF1A in controlling start codon fidelity in yeast and mammalian cells (Martin-Marcos et al, [2011]; Martin-Marcos et al, [2017]; Sehrawat et al, [2019]; She et al, [2023]) and tested how inhibition of eIF1A by 1Ais affects the initiation from near-cognate AUG. The effect of 1Ais was analyzed using firefly luciferase reporters bearing either AUG (control), CUG, or GUG as the exclusive translation initiation sites. Co-transfected GFP reporter served as an internal control for transfection efficiency.
For the near-cognate AUG Starting codon fidelity reporter assay, HEK293T cells were transfected with 100 ng of the previously described luciferase reporter constructs driven either by AUG, CUG, and GUG (Tang et al, [2017]) together with GFP expressing plasmid (20 ng) as normalizing control. Luciferase and GFP levels were determined as described above.
Appendix Figure S1: (A) HEK293T cells were transfected with Luciferase reporter genes with either CUG or AUG as their exclusive starting codon. 6 hours after transfection, cells were exposed to 1Ais, and the luminescence from all constructs was measured after overnight incubation. Bars represent the ratio between luminescence from the AUG starting codon and CUG after normalization with co-transfected GFP; Error bars represent SEM, * denotes p<0.05 (T-test comparing to DMSO control), n=≥4 independent biological replicates.

Experiment [4] concerns cap-proximal AUG GFP reporter in HEK293T cells. In kind it is cell-based. The conditions noted are these: GFP WB densitometry; 20 µM overnight; dmso 0.965946. From the text: Translation from an AUG preceded by a very short 5'UTR (less than 30 nt) is usually inefficient and frequently bypassed, resulting in initiation from a downstream AUG, a phenomenon known as leaky scanning. […] To examine the impact of 1Ais on short 5'UTR initiation, we used a GFP reporter gene containing an AUG located 16 nt downstream from the 5' end followed by a second in-frame downstream AUG (Fig. 1F; Appendix Fig. S1B). Cells were transfected with this GFP reporter gene followed by exposure to DMSO (vehicle) and 1Ais. Initiations from upstream (US) or downstream (DS) AUGs were determined by western blot (WB) with anti-GFP antibodies and the ratio between the US and DS AUG was determined.
For the analysis of translation from very short 5'UTR and Leaky scanning, HEK293T cells were transfected with a GFP (20 ng/well) reporter gene driven by a cap-proximal and downstream AUGs (Elfakess et al, [2011]) together with a luciferase reporter gene (100 ng/well) as normalizing control and treated with 20 µM of 1Ais as described above. GFP levels were determined by Western blot (WB) (GFP antibody, Abcam #ab290) and quantified by densitometry (ImageJ) and normalized to the measured luciferase activity.
HEK293T cells were transfected with the GFP reporter gene schematically shown on the top. The first
AUG is […] from the 5’ end and the downstream AUG is in the same frame. Six hours after transfection, cells were treated with 1Ais. After overnight exposure to 1Ais, GFP expression was analyzed by WB using anti -GFP antibodies.
US/DS ratio was determined by densitometry and represents the long protein expression (upstream AUG, US) vs the […]
biological replicates. (C-D) Analysis of reporter genes mRNA levels after 1Ais treatment.

Experiment [5] concerns IRF7 5'UTR firefly luciferase reporter in HEK293T cells. The conditions noted are these: for LONG (summary - All), normalized to DMSO / SHORT (summary - All), normalized to DMSO: individual replicates, outliers excluded, DMSO = 1; for average ( long vs short ratio): summary - All.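 On all read-outs here: luciferase signal corrected by a co-transfected GFP reporter for transfection efficiency, read after overnight compound exposure, with Long and Short reporters differing in 5'UTR length.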

T1 sequence (P47813 whole entry, one chain of several): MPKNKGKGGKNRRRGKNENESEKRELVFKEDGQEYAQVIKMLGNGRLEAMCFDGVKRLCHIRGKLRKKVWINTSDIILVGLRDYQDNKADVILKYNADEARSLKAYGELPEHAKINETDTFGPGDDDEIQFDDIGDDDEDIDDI

Turning to `O=C(Nc1ccc(S(=O)(=O)NC23CC4CC(CC(C4)C2)C3)cc1)c1ccc(Cl)cc1` [1A-3638], the “Weight of tumor, average” value in experiment [1] (group average) is 0.2614. In experiment [1] (individual animals), the Weight of tumor is 0.6521 and 0.1855 and 0.085 and 0.0594 and 0.2257 and 0.0264 and 0.562 and 0.006 and 0.5508. Besides, the “Tumor weight p-value (t-test vs DMSO)” value in experiment [1] (t.test vs DMSO) was found to be 0.005991.
With `NS(=O)(=O)c1cccc(-c2ccc(C3Nc4ccccc4-c4nc5ccccc5n43)o2)c1` (stereo not drawn) [1Ai-0050], the pIC50 in experiment [2] is 4.59. Further, in experiment [3] (compound at 20uM), the “GUG vs AUG data (%)” value is 2.02% and 1.27% and 1.28% and 1.15%; the “GUG vs AUG (%) Average” value turned out to be 1.43%. The “US/DS ratio, average” value in experiment [4] is 1.064. Moreover, the “LONG (summary - All), normalized to DMSO” value in experiment [5] (Long reporter, 20 µM) is 1.25 and 0.94 and 0.54 and 1.63. Further, in experiment [5] (Short reporter, 20 µM), the “SHORT (summary - All), normalized to DMSO” value (“SHORT … normalized to DMSO” below) is 0.72 and 0.91. For the same compound, the “average ( long vs short ratio)” value in experiment [5] (20 µM) came out at 1.337.
For `O=C(Nc1nc(-c2c[nH]c3ccccc23)cs1)c1cc(=O)[nH]c2ccccc12` [1Ai-0403], the pIC50 in experiment [2] is 4.77. For the same compound, in experiment [3] (compound at 5uM), the “GUG vs AUG data (%)” value is 1.56% and 2.09% and 1.50% and 2.83%; the “GUG vs AUG (%) Average” value amounted to 1.99%. Further, the “US/DS ratio, average” value in experiment [4] is 1.283. In addition, the “LONG (summary - All), normalized to DMSO” value in experiment [5] (Long reporter, 5 µM) is 0.54 and 1.00 and 0.95. Also, in experiment [5] (Short reporter, 5 µM), the “SHORT … normalized to DMSO” value was 1.05 and 0.93 and 1.12. Besides, in experiment [5] (data section, Long reporter, GFP-corrected, 5 µM, per experiment), the “Long: Normalized to average DMSO” value was 0.5423 and 1 and 0.9496. Moreover, the “Short: Normalized to average DMSO” value in experiment [5] (data section, Short reporter, GFP-corrected, 5 µM, per experiment, includes values excluded as outliers) was 1.05 and 0.9341 and 1.121. Besides, in experiment [5] (5 µM), the “average ( long vs short ratio)” value turned out to be 0.803.
For the compound `c1csc(-c2nc(NCc3nnc4ccccn34)c3ccccc3n2)c1` [1Ai-2136], in experiment [2], the pIC50 is 4.54. Moreover, in experiment [3] (compound at 20uM), the “GUG vs AUG data (%)” value is 1.58% and 2.63% and 2.62% and 2.27%; the “GUG vs AUG (%) Average” value was determined as 2.27%. The “US/DS ratio, average” value in experiment [4] was found to be 0.8866. In addition, in experiment [5] (Long reporter, 20 µM), the “LONG (summary - All), normalized to DMSO” value was 0.43 and 0.72 and 0.55 and 0.54. Moreover, in experiment [5] (Short reporter, 20 µM), the “SHORT … normalized to DMSO” value is 0.63 and 0.25 and 0.98 and 0.99 and 0.71 and 0.58. For the same compound, the “Long 5'UTR reporter luciferase activity, normalized to DMSO (=1), single replicates” value in experiment [5] (compound at 20 µM, left data block (Long), source data of Fig 1C) is 0.43 and 1.0233 and 1.053 and 0.724 and 0.552 and 0.5382. Moreover, the “average ( long vs short ratio)” value in experiment [5] (20 µM) was determined as 0.813.
